Read-outs that look alike come from different tables or passages of the source.
Legend:
Kinetic solubility = assay type: physicochemical; settings: aqueous buffer, kinetic from dmso stock, 0.1 M phosphate buffered saline pH 7.4, target 100 μM, 1.5 h
Procedure: The target compound concentration was 100 μM (kinetic), the assay buffer was 0.1 M phosphate buffered saline pH 7.4, the mixing period was 1.5 h (kinetic). The sample was prepared by centrifugation or filtration and the detection method used was HPLC with UV-vis spectrometry.

[1] = Caco-2 permeability assay; settings: human
From the text: The endpoint measured is the intestinal permeability expressed as apparent permeability—Papp value. All permeability values are represented as ×10^−6 cm/sec.

Huh-7 Cells = experiment: Cellular NAD+ levels in Huh-7 cells (LCMS/MS); assay type: cell-based; settings: 125 μm, four hours of incubation
Procedure: (§1) Huh-7 Cells, sourced from NCCS Pune, were cultured in RPMI media containing FBS & Antibiotics. Cells from different flasks (80-90% confluent) were pooled into a 15 mL conical tube and centrifuged for 5 mins at 1200 rpm for 5 mins. The supernatant solution was discarded, and the pellet was washed with 5 mL sterile PBS (without Ca^2+ and Mg^2+). The tube was then centrifuged at 1200 rpm for 5 mins and the supernatant was discarded. The cell pellet was resuspended in 7 mL of RPMI media, and a cell count was done using 10 uL of the cell solution. 1.5 million cells from the cell solution were seeded into 1.5 mL microcentrifuge tubes. […] The tubes were placed in racks and gently swirled to mix the compounds into the media containing the cells. These tubes were then incubated for 4 hours in a 37° C. incubator at 5% CO2. After 4 hours of incubation the cells were spun down at 1000 rpm for 10 mins, the supernatant was discarded carefully, and cells were snap frozen in liquid nitrogen. When the samples were run, the extraction of the cells was on ice, cells were lysed using 20 uL deionized water and then ice cold 80% methanol containing the internal standard—Rac-Tenofovir D was added. The tubes were then vortexed at 2500 rpm for 8 minutes and then centrifuged at […] for 10 minutes. 150 uL of the supernatant was carefully transferred to HPLC vials and was analyzed for NAD^+ on the Abscised 4000 Q Trap LCMS/MS system. A C18, 3.5 μm, 2.1×100 mm, Bridge Column was used in the LC. The mobile phase consisted of 10 mM ammonium acetate with 0.1% acetic acid & 0.1% hexylamine as Solvent-A and 10 mM Ammonium acetate with 0.1% acetic acid and 0.1% hexylamine in 95/5 MeOH/H2O as Solvent-B. The gradient used was 0 mins-0.0% B, 0.5 mins-100% B, 1.5 mins-100% B, 3.0 mins-100% B, 3.1 mins-0.0% B, 7.0-STOP. The column flow rate was 0.5 mL/min. The sample injection volume was […].

[2] = PK study in rats (plasma); assay type: in vivo; settings: for half-life: read-out: T1/2 (converted); for AUC(0-t): read-out: AUC0-1
Jurkat Cells = experiment: Cellular NAD+ levels in Jurkat cells (LCMS/MS); assay type: cell-based; settings: 30 μM, four hours of incubation
Procedure: Compounds 100, 101 and 102 were weighted out to prepare 60 μM stock solutions in RPMI media. 200 ng/mL solution of Rac-tenofovir d6 (Vivan Life-Sciences) was prepared in methanol (MeOH) and placed at −20° C. until use.
as §1, with “Jurkat Cells,” for “Huh-7 Cells,”, “flasks (90%” for “flasks (80-90%”, “Ca^2+ &” for “Ca^2+ and”, “acid and” for “acid &”

human hepatocytes [3] = experiment: Human hepatocyte stability
Procedure: (§8) 10 mM stock solution of test compound was prepared in DMSO and diluted to a concentration of 1 mM with DMSO. Working concentration of 2 μM was prepared by further dilution with PBS. Preincubation mixture of 150 μL of hepatocyte cell suspension (1,000,000 cells/mL, INVITROGRO HT medium buffer), was added to vials for preincubation for 10 min @37° C.
(§9) 150 μL of 2 μM working stock of the test compound was added to the cell suspension and incubated at @37 C at 500 rpm. The reaction was stopped at 0, 15, 30, 60 and 90 min by precipitating 50 μL of the incubation mixture with 150 μL of acetonitrile. Samples were vortexed for 5 min at 1200 rpm and centrifuged at 4000 rpm for 10 min. 150 μL of the supernatant was diluted with 150 μL of water and injected in MS system (SCIEX, API 4500 Q Trap) for analysis.

human hepatocytes [4] = experiment: Human hepatocyte clearance; assay type: in vitro ADME
Procedure: (§2) A hepatocyte vial was taken out from the liquid nitrogen tank and was thawed in a water bath maintained at 37° C. The thawed cell suspension was transferred into a torsion tube containing 50 mL of thawing media (Xenotech). The thawing media containing hepatocytes was centrifuged at 1000 rpm for 5 min, the supernatant was discarded and the pellet was resuspended in 2 ml of Xenotech OptiIncubate Media. The cells were counted by using a haemocytometer after mixing an aliquot of cell suspension with equal volume of trypan blue. The cell suspension was diluted to a working density of 2 million cells with DMEM media without FBS/incubation media.
(§3) The assay was performed in duplicates (n=2). 150 μL of 2 million cell working stock of hepatocyte cell suspension was added to a 24 well plate and incubated in a 37° C. incubator, with speed of 500 RPM for 10 min. 150 μL of 2 μM working stock of test compound was incubated separately. The reaction at 0, 15, 30, 60 and 90 min was stopped by precipitating 20 μL of incubation mixture with 200 μL of acetonitrile containing internal standard. […] The supernatant was separated and diluted 1:1 with water before injecting in LC-MS/MS analysis.

[5] = Human hepatocyte clearance; assay type: in vitro ADME; settings: human hepatocytes, 1 μM
Procedure: as §2, §3

in vitro = settings: human, plasma
Procedure: (§4) The test compounds were weighed and prepared as 10 mM stocks in 100% DMSO. 10 μM is the final test concentration for all compounds.
(§5) The samples were prepared by spiking test compound(s) in plasma at 10 μM final concentration. 200 μL of plasma containing the test compound was added into the donor well (RED Chamber) of the insert. Simultaneously 350 μL of dialysis buffer (1×PBS) was added into the receiver well (white chamber). Two measurements were made for each test compound. The plate was covered with a sealer and incubated at 37° C. degrees on an orbital shaker at 500 rpm for 5 hours.
(§6) After incubation, 25 μl of plasma (RED chamber) and 25 μl of buffer (white chamber) samples were separately collected into separate centrifugation tubes. Plasma and buffer samples were precipitated with 200 μL of 100% acetonitrile containing internal standards. 25 μl of T0 (T Zero) plasma samples (samples before 5 hours incubation) were collected (To samples were processed immediately after the preparation of plasma working stock solution. These samples serve as a measure for calculating the percentage recovery of the test compound and precipitated using 100% acetonitrile containing internal standards). The samples were vortexed at 1000 rpm for 5 min and centrifuged at 4000 rpm for 10 min. The supernatant was diluted 2-fold with water and injected into LC-MS/MS.
(§7) The % of Plasma bound/unbound fraction was calculated by the following equation: % Unbound or % free=100*(Fc/Tc); % Recovery=100 (Fc+Tc)/[…] where Tc=Total compound concentration as determined by the calculated concentration on the plasma side of the membrane (concentration in plasma chamber), Fc=Free compound concentration as determined by the calculated concentration on the buffer side of the membrane (concentration in buffer chamber) and T0=Total compound concentration as determined before dialysis.

Human Plasma Protein = experiment: in vitro
Procedure: as §4, §5, §6, §7

human hepatocytes [6] = settings: 1 μM
Procedure: as §8, §9

[7] = read-out: Mean Solubility (μg/mL)

CCCSc1ccc2nc(NC(=O)OC)[nH]c2c1 [Albendazole, reference compound]
solubility at 1.5 h (Kinetic solubility; read-out: Mean Solubility): 0.66 µM
solubility at 1.5 h (Kinetic solubility; [7]): 0.2 µg/mL

NC(=O)N1c2ccccc2C=Cc2ccccc21 [Carbamazepine, reference compound]
Papp A→B [1]: 22.2 ×10⁻⁶ cm/s
Papp B→A [1]: 23.4 ×10⁻⁶ cm/s
efflux ratio [1]: 1.1
recovery ([1]; Caco-2, % Recovery A to B): 89.3%
recovery ([1]; Caco-2, % Recovery B to A): 91%

O=c1[nH]c2ccccc2n1CCCN1CCC(n2c(=O)[nH]c3cc(Cl)ccc32)CC1 [Domperidone, reference compound]
Papp A→B [1]: 3.9 ×10⁻⁶ cm/s
Papp B→A [1]: 20.3 ×10⁻⁶ cm/s
efflux ratio [1]: 5.2
recovery ([1]; Caco-2, % Recovery A to B): 61.8%
recovery ([1]; Caco-2, % Recovery B to A): 76.4%

CC(C(=O)O)c1ccc(-c2ccccc2)c(F)c1 (stereo not shown) [Flurbiprofen, reference compound]
solubility at 1.5 h (Kinetic solubility; read-out: Mean Solubility): 111 µM
solubility at 1.5 h (Kinetic solubility; [7]): 27 µg/mL

O=C(O)c1cccnc1 [Nicotinic acid]
NAD+ level increase compared to untreated cells (Huh-7 Cells): showed an increase
Cmax ([2]; rat, plasma, iv, 40 mg/kg): 1240 ± 833 µM
Tmax ([2]; rat, plasma, iv, 40 mg/kg): 15 min
clearance ([2]; rat, plasma, iv, 40 mg/kg): 5.07 mL/min/kg
half-life ([2]; rat, plasma, iv, 40 mg/kg, rats, Group 4: nicotinic acid 40 mg/kg IV): 26.9 ± 16.6 min
AUC(0-t) ([2]; rat, plasma, iv, 40 mg/kg): 1080 ± 426 µM·h
Vd ([2]; rat, plasma, iv, 40 mg/kg, read-out: Vss): 0.211 ± 0.156 L/kg
Cmax ([2]; rat, plasma, po, 200 mg/kg): 519 ± 83.3 µM
Tmax ([2]; rat, plasma, po, 200 mg/kg): 79.8 ± 34.8 min
bioavailability ([2]; rat, plasma, po, 200 mg/kg): 29%
half-life ([2]; rat, plasma, po, 200 mg/kg, rats, Group 3: nicotinic acid 200 mg/kg PO): 85.2 ± 25.8 min
AUC(0-t) ([2]; rat, plasma, po, 200 mg/kg): 1680 ± 305 µM·h
IV pharmacokinetics profile (in words) ([2]; rats, IV): No distribution phase
NAD+ level increase compared to untreated cells (Jurkat Cells): showed statistical significance in terms of NAD^+ level increases

C[C@]12CC[C@H]3[C@@H](CCC4=CC(=O)CC[C@@]43C)[C@@H]1CC[C@@H]2O [Testosterone, reference compound]
% Parent Remaining (human hepatocytes [3]; 0 mins): 100%
% Parent Remaining (human hepatocytes [3]; 15 mins): 28%
% Parent Remaining (human hepatocytes [3]; 30 mins): 11%
% Parent Remaining (human hepatocytes [3]; 60 mins): 3%
% Parent Remaining (human hepatocytes [3]; 90 mins): 1%
Remarks (clearance class) (human hepatocytes [4]): High*
half-life at 1 μM ([5]; 0-90 min, read-out: T½): 9.14 min
hepatocyte CLint at 1 μM ([5]; read-out: Intrinsic Clearance (CL Int)): 75.8 µL/min/1e6 cells

CC(=O)CC(c1ccccc1)c1c(O)c2ccccc2oc1=O (stereo not shown) [Warfarin, reference compound]
fraction unbound at 5 h, 10 μM (in vitro; % Bound in plasma): 0.0044
fraction unbound at 5 h, 10 μM (in vitro; % Unbound in plasma): 0.0054
fraction unbound at 5 h, 10 μM (in vitro; Fraction unbound): 0.005
Remarks (binding class) (Human Plasma Protein): High binding
Remarks (clearance class) (human hepatocytes [4]): Low*
% Parent Remaining (human hepatocytes [6]; 0 h): 100%
% Parent Remaining (human hepatocytes [6]; 0.25 h): 91%
% Parent Remaining (human hepatocytes [6]; 0.5 h): 89%
% Parent Remaining (human hepatocytes [6]; 1 h): 96%
% Parent Remaining (human hepatocytes [6]; 1.5 h): 96%

From patent publication US12168673B2 (Mitopower, Inc., priority 2022, dated 2024)
